# Test results published in EP0279263B1, “Indole, benzofuran, benzothiophene containing lipoxygenase inhibiting compounds” (ABBOTT LABORATORIES, priority 1987, dated 1988).
# Target: T1, 5-lipoxygenase (Rattus norvegicus, UniProt P12527)
# T1 construct: 20,000xg supernatant from 6x10⁴ homogenized RBL-1 cells; endogenous in cells; host or cells: RBL-1 cells (homogenate, 20,000xg supernatant)
# T1 sequence (P12527 1-673): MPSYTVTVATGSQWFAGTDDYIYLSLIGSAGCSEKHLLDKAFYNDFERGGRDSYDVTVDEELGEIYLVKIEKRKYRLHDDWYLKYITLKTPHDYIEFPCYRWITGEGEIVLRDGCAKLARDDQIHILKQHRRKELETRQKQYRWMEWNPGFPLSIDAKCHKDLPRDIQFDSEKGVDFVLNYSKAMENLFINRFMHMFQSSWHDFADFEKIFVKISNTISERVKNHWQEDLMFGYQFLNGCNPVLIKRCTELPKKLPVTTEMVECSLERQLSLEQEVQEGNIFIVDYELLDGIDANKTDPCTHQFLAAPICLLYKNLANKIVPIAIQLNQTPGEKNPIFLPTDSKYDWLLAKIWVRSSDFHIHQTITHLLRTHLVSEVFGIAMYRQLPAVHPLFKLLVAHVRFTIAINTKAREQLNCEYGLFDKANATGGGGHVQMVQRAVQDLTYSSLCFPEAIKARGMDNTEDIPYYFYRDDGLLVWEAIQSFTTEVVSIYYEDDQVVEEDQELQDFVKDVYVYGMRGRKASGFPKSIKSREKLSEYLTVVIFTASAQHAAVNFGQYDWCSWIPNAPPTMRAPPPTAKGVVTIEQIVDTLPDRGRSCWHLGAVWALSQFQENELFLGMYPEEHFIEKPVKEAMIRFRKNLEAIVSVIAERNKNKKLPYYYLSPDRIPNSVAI
# Experiment: Lipoxygenase IC50 determination (5-lipoxygenase inhibitory activity, RBL-1 cell supernatant)
# Format: biochemical
# Settings: 20,000xg supernatant from homogenized RBL-1 cells, radiolabelled arachidonic acid, 2% DMSO vehicle
# Protocol: Reactions were initiated by addition of radiolabelled arachidonic acid and terminated by acidification and ether extraction. Reaction products were separated from nonconverted substrate by thin layer chromatography and measured by liquid scintillation spectroscopy. All treatments were evaluated in triplicate incubations.
row,SMILES,IC50
1,"CC(C)C(=O)N(O)C(C)c1cc2ccccc2s1 (stereo not shown) [Example 21, N-hydroxy-N-(1-benzo[b]thien-2-ylethyl) 2-methylpropionamide]",0.38 µM
2,"CC(c1cn(C)c2ccccc12)N(O)C(N)=O (stereo not shown) [Example 17, N-hydroxy-N-(1-(1-methylindol-3-yl)ethyl) urea]",2.8 µM
3,"CNC(=O)N(O)Cc1cc2ccccc2s1 [Example 46, N-hydroxy-N-benzo[b]thien-2-ylmethyl N'-methyl urea]",1.9 µM
4,"CC(c1cc2ccccc2n1S(C)(=O)=O)N(O)C(N)=O (stereo not shown) [Example 40, N-hydroxy-N-[1-(1-methanesulfonylindol-2-yl)ethyl] urea]",3 µM
5,"Cc1c(C(C)N(O)C(N)=O)sc2ccccc12 (stereo not shown) [Example 10, N-hydroxy-N-[1-(3-methylbenzo[b]thien-2-yl)ethyl] urea]",0.54 µM
6,"Cc1ccc(C)c2sc(C(C)N(O)C(N)=O)cc12 (stereo not shown) [Example 28, N-hydroxy-N-[1-(4,7-dimethylbenzo[b]thien-2-yl)ethyl] urea]",0.4 µM
7,"CC(c1cc2cc(Cl)cc(Cl)c2o1)N(O)C(N)=O (stereo not shown) [Example 33, N-hydroxy-N-[1-(5,7-dichlorobenzo[b]fur-2-yl)ethyl] urea]",0.36 µM
8,"CC(=O)n1c(C(C)N(O)C(N)=O)cc2ccccc21 (stereo not shown) [Example 39, N-hydroxy-N-[1-(1-acetylindol-2-yl)ethyl] urea]",4 µM
9,"CC(C1Cc2ccccc2O1)N(O)C(N)=O (stereo not shown) [Example 42, N-hydroxy-N-[1-(2,3-dihydrobenzo[b]fur-yl)ethyl] urea]",8.5 µM
10,"CC(=O)N(O)CC=Cc1cc2ccccc2s1 [Example 31, N-hydroxy-N-(3-benzo[b]thien-2-ylprop-2-enyl) acetamide]",0.27 µM
11,"CC(Cc1cc2ccccc2s1)N(O)C(N)=O (stereo not shown) [Example 30, N-hydroxy-N-(2-benzo[b]thien-2-yl-1-methylethyl) urea]",0.46 µM
12,"CNC(=O)N(O)C(C)c1cc2ccc(OCc3ccccc3)cc2o1 (stereo not shown) [Example 52, N-hydroxy-N-[1-(6-benzyloxybenzo[b]fur-2-yl)ethyl]N'-methyl urea]",0.2 µM
13,"CN(C)C(=O)N(O)Cc1cc2ccccc2s1 [Example 7, N-hydroxy-N-benzo[b]thien-2-ylmethyl N',N'-dimethyl urea]",1.1 µM
14,CCOc1cccc2cc(C(C)N(O)C(N)=O)oc12 (stereo not shown) [Example 36],3.5 µM
15,"CC(c1cc2ccccc2n1C)N(O)C(N)=O (stereo not shown) [Example 24, N-hydroxy-N-(1-(1-methylindol-2-yl)ethyl) urea]",1.6 µM
16,"CC(c1cc2ccccc2s1)N(O)C(N)=S (stereo not shown) [Example 25, N-hydroxy-N-(1-benzo[b]thien-2-ylethyl) thiourea]",0.19 µM
17,"CC(c1cc2cc(F)ccc2s1)N(O)C(N)=O (stereo not shown) [Example 29, N-hydroxy-N-[1-(5-fluorobenzo[b]thien-2-yl)ethyl] urea]",0.5 µM
18,"CCNC(=O)N(O)C(C)c1cc2ccccc2s1 (stereo not shown) [Example 44, N-hydroxy-N-(1-benzo[b]thien-2-ylethyl) N'-ethylurea]",1.8 µM
19,"CNC(=S)N(O)C(C)c1cc2ccccc2s1 (stereo not shown) [Example 45, N-hydroxy-N-(1-benzo[b]thien-2-ylethyl) N'-methyl thiourea]",0.19 µM

row,SMILES,IC50
1,"NC(=O)N(O)CC=Cc1cc2ccccc2s1 [Example 32, N-hydroxy-N-(3-benzo[b]thien-2-ylprop-2-enyl) urea]",0.35 µM
2,"NC(=O)N(O)Cc1cc2ccccc2o1 [Example 49, N-hydroxy-N-benzo[b]fur-2-ylmethyl urea]",8.2 µM
3,"CC(=O)N(O)C(C)c1csc2ccccc12 (stereo not shown) [Example 8, N-hydroxy-N-(1-benzo[b]thien-3-ylethyl) acetamide]",1.4 µM
4,"CC(c1cc2ccccc2s1)N(O)C(=O)N(C)C (stereo not shown) [Example 4, N-hydroxy-N-(1-benzo[b]thien-2-ylethyl) N'N'-dimethyl urea]",0.54 µM
5,"CCNC(=O)N(O)Cc1cc2ccccc2s1 [Example 47, N-hydroxy-N-benzo[b]thien-2-ylmethyl-N'-ethyl urea]",1 µM
6,"CC(c1cc2ccccc2s1)N(O)C=O (stereo not shown) [Example 20, N-hydroxy-N-(1-benzo[b]thien-2-ylethyl) formamide]",3 µM
7,"CC(c1cc2ccccc2s1)N(O)C(=O)NO (stereo not shown) [Example 43, N,N'-dihydroxy-N-(1-benzo[b]thien-2-ylethyl) urea]",0.51 µM
8,CC(c1cc2ccccc2[nH]1)N(O)C(N)=O (stereo not shown) [Example 53],2.9 µM
9,CC(C)CC(c1cc2ccccc2s1)N(O)C(N)=O (stereo not shown) [Example 48],0.2 µM
10,"CC(=O)N(O)C(C)c1cn(C)c2ccccc12 (stereo not shown) [Example 16, N-hydroxy-N-(1-(1-methylindol-3-yl)ethyl) acetamide]",2.6 µM
11,"CC(c1cc2ccc(OCc3ccccc3)cc2o1)N(O)C(N)=O (stereo not shown) [Example 51, N-hydroxy-N-[1-(6-benzyloxybenzo[b]fur-2-yl)ethyl] urea]",0.25 µM
12,"CNC(=O)N(O)Cc1cc2ccccc2o1 [Example 50, N-hydroxy-N-benzo[b]fur-2-ylmethyl N'-methyl urea]",2.3 µM
13,"CC(c1cc2ccccc2o1)N(O)C(N)=O (stereo not shown) [Example 15, N-hydroxy-N-(1-benzo[b]fur-2-ylethyl) urea]",2.7 µM
14,"CC(=O)N(O)C(C)C1=Cc2ccccc2S1(=O)=O (stereo not shown) [Example 12, N-hydroxy-N-[1-benzo[b]thien-2-ylethyl) acetamide 1,1-dioxide]",21 µM
15,CC(c1cc2cc(Cl)ccc2[nH]1)N(O)C(N)=O (stereo not shown) [Example 38],1 µM
16,"CC(c1csc2ccccc12)N(O)C(N)=O (stereo not shown) [Example 9, N-hydroxy-N-(1-benzo[b]thien-3-ylethyl) urea]",1.3 µM
17,COc1cccc2cc(C(C)N(O)C(N)=O)oc12 (stereo not shown) [Example 34],1.9 µM
18,"CNC(=O)N(O)C(C)c1cn(C)c2ccccc12 (stereo not shown) [Example 18, N-hydroxy-N-(1-(1-methylindol-3-yl)ethyl) N'-methyl urea]",3.7 µM
